# Assay results taken from patent US5457108A, “5-oxo-dibenzo[a,d]cyclohepta-1,4-dienes” (Bayer Aktiengesellschaft, priority 1992, dated 1995).
# Assays:
# HIV protease = target: T1, HIV protease (Human immunodeficiency virus type 1 group M subtype B, UniProt P04585); assay: HIV protease enzyme test (cleavage of synthetic Gag peptide, RP-HPLC); type: biochemical; conditions: purified HIV protease, synthetic peptide substrate, read-out: IC50 (50% inhibition of the protease activity)
# T1 construct: purified HIV protease was incubated with synthetic peptide
# Method: This is verified by means of an HIV-specific protease enzyme test.
# The results of the examples listed below were determined according to the HIV test system described in the following references [cf. Hansen, J., Billich, S., Schulze, T., Sukrow, S. and Molling, K (1988), EMBO Journal, Vol. 7, No. 6, pp. 1785-1791]: purified HIV protease was incubated with synthetic peptide which imitates a cleavage site in the Gag precursor protein and represents an in-vivo cleavage site for the HIV protease. The cleavage products of the synthetic peptide which resulted were analysed by means of reverse phase high performance liquid chromatography (RP-HPLC). The IC50 values which are given refer to the substance concentrations which, under the test conditions set out above, effect a 50% inhibition of the protease activity.
# HIV = HIV infection in cell culture (syncytium formation in HIV-infected human PBLs); type: cell-based; conditions: Human immunodeficiency virus 1, Lymphocyte, 72 h; HIV-infected normal human blood lymphocytes (PBLs), 37° C., evaluated day 3 to 6 after infection; read-out: IC50 (50% of the virus-induced syncytia suppressed)
# Method: HIV infection in cell culture
# The HIV test was carried out, with minor modifications, according to the method of Pauwels et al. [cf. Journal of Virological Methods 20, (1988), 309-321].
# Normal human blood lymphocytes (PBLs) were enriched through Ficoll-Hypaque and stimulated in RPMI 1640, 20% fetal calf serum containing phytohaemagglutinin (90 μg/ml) and interleukin-2 (40 U/ml). For infection with the infectious HIV, the PBLs were pelleted and the cell pellet was subsequently suspended in 1 ml of HIV virus adsorption solution and incubated at 37° C. for 1 hour.
# The virus adsorption solution was centrifuged and the infected cell pellet was taken up in growth medium in such a way that the suspension was adjusted to 1×10^5 cells per ml. The cells infected in this manner were pipetted, at 1×10^4 cells/well, into the wells of 96-well microtitre plates.
# The first vertical row of the microtitre plate contained only growth medium and cells which were not infected but which otherwise had been treated exactly as described above (cell control). The second vertical row of the microtitre plate contained only HIV-infected cells (virus control) in growth medium. […]
# The test mixtures were incubated at 37° C. until the syncytium formation which is typical for HIV appeared in the untreated virus control (between day 3 and 6 after infection) and it was then evaluated microscopically. […]
IC50 (HIV protease) [µM],SMILES,IC50 (HIV) [µM]
0.005,"O=C(NCc1ccc2c(c1)[C@@H](O)[C@H](O)c1cc(CNC(=O)OCc3ccccc3)ccc1C2=O)OCc1ccccc1 (relative stereo) [Example 4, (trans)-2,8-Bis-phenylmethoxycarbonylaminomethyl-10,11-dihydroxy-5-oxo-dibenzo[a,d]cyclohepta-1,4-diene]",10
–,"O=C(NCc1ccc2c(c1)[C@@H](O)[C@@H](O)c1cc(CNC(=O)OCc3ccccc3)ccc1C2=O)OCc1ccccc1 [Example 5, (cis)-2,8-Bis-phenylmethoxycarbonylaminomethyl-10,11-dihydroxy-5-oxo-dibenzo[a,d]cyclohepta-1,4-diene]",10
2,"CC(C)(C)S(=O)(=O)CC(Cc1cccc2ccccc12)C(=O)NCc1ccc2c(c1)C(O)C(O)c1cc(CNC(=O)C(Cc3cccc4ccccc34)CS(=O)(=O)C(C)(C)C)ccc1C2=O (stereo not drawn) [Example 6, (trans)-10,11-Dihydroxy-2,8-bis-[5,5-dimethyl-4,4-dioxo-2-(1-naphthylmethyl)-4-thiahexanoylaminomethyl-5-oxodibenzo[a,d]cyclohepta-1,4-diene]",–
